Experiment in all cases: NCI tumour cell line growth inhibition, 48 h
Assay [1] relates to UO-31 renal.
The test system of assay [2] is NCI-H23 lung.
The subject of assay [3] is CCRF-CEM leukemia.
Assay [4] has as its system KM12 colon.
Assay [5] has as its system HCT-116 colon.
Assay [6] has as its system HOP-62 NSCLC.
Assay [7] deals with OVCAR-4 ovarian.
For assay [8], the system named is MALME-3M melanoma.
Assay [9] has as its system TK-10 renal.
Assay [10] relates to MDA-MB-435.

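Growth conditions: 96-well plates. Treatment: test compound, 48 hours, 5 concentrations. Analysis: linear interpolation between bracketing concentrations; unreached endpoints set to highest concentration. At the TGI there is no net growth.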

As for `COC(=O)CC1CC2(C(=O)OC)c3[nH]c4ccccc4c3CCN2C1=O` (stereo not drawn), the TGI in assay [1], in [2], in [3], in assay [4], in assay [5] and in assay [6] was above 100 µM each time. Besides, the TGI in assay [7], in assay [8] and in [9] was above 100 µM in each case.

With `O=C1/C(=C/c2ccc(Cl)cc2)Oc2ccccc21`, the TGI was 30.4 µM in assay [1]; 73.1 µM in assay [2]; above 100 µM in [3]; above 100 µM in assay [4]; above 100 µM in assay [5]; 53.3 µM in [6]. The values for the TGI in [7], in [9] and in assay [10] were above 100 µM, 64.3 µM and above 100 µM, respectively.

Turning to `CC(=O)N[C@@H](Cc1ccc(O)cn1)C(=O)NC1CCCCC1`, the TGI in [1], in assay [2], in assay [3], in [4], in [5] and in assay [6] was above 100 µM in each case. In addition, the TGI in [7], in [9] and in [10] was above 100 µM in each case.

For `Cc1ccc(NC(=O)C(=O)Cc2cccc[n+]2[O-])cc1C`, the TGI in assay [1], in assay [2], in [3], in assay [4], in [5] and in [6] was above 100 µM in each case. The TGI in assay [7], in assay [8] and in assay [9] was above 100 µM throughout.

Take `COc1ccc(/C=N/NC(=S)Nc2cc(C)ccc2OC)cc1`: the TGI in assay [1] was above 100 µM; in assay [2], 73.8 µM; in assay [3] it was above 100 µM; in assay [4] it was above 100 µM; in assay [5], above 100 µM; in assay [6], above 100 µM. Also, the TGI was above 100 µM in [7], 65.2 µM in [8] and above 100 µM in [10].

Turning to `NC(N)=NCCCC(NC(=O)c1c2ccccc2nc2ccccc12)C(=O)O` (stereo not drawn), the TGI in assay [1], in assay [2], in assay [3], in assay [4], in [5] and in assay [6] was above 100 µM in each case. Further, the TGI in [7], in assay [9] and in [10] was above 100 µM each time.

Turning to `N#Cc1c(N)nc(Sc2ccccc2N)c(C#N)c1-c1ccccc1`, the TGI in assay [1] is 34.3 µM; in assay [2], 63.7 µM; in [4], 94.8 µM; in assay [5], above 100 µM; in assay [6], above 100 µM; in [7] it was above 100 µM. Further, the values for the TGI in [8], in [9] and in assay [10] were 46.2 µM, 34.2 µM and 97.3 µM, respectively.

Consider `CC1=CCN(c2ccccn2)OC1c1ccccc1` (stereo not drawn), for which the TGI in assay [1], in assay [2], in [3], in assay [4], in assay [5] and in assay [6] was above 100 µM in each case. Moreover, the TGI in assay [7] and in [8] was above 100 µM in each case.

For `Cc1nc(Cc2n[nH]c(C)n2)n[nH]1`, the TGI in assay [1], in assay [2], in assay [3], in [4], in assay [5] and in assay [6] was above 100 µM in each case. Also, the TGI in assay [7], in [9] and in assay [10] was above 100 µM throughout.

For the compound `COc1cc(/C=C2/Oc3c(OC)cccc3C2=O)ccc1O`, the TGI in assay [1], in [2], in [3], in assay [4], in assay [5] and in assay [6] was above 100 µM each time. Moreover, the TGI in assay [7], in [9] and in assay [10] was above 100 µM in each case.

Turning to `Cn1c(NC(=O)NC23CC4CC(CC(C4)C2)C3)nc2ccccc21`, the TGI in assay [1] is above 100 µM; in assay [2], above 100 µM; in assay [4], above 100 µM; in assay [5] it was above 100 µM; in [6] it was above 100 µM; in assay [7], 28.5 µM. Besides, the TGI in assay [8] is 81.6 µM; in [9], above 100 µM.

Consider `CC(C)=CC(=O)c1c(C(=O)O)nc2ccccc2[n+]1[O-]`, for which the TGI in assay [1], in [2], in assay [3], in [4], in assay [5] and in assay [6] was above 100 µM throughout. Also, the TGI in assay [7] and in [9] was above 100 µM in each case.

Regarding `CC[C@@]12CCC(=S)N(CCSc3ccccc3)[C@@H]1c1c(n(S(=O)(=O)c3ccc(OC)cc3)c3ccccc13)CC2`, the TGI in assay [1], in assay [2], in [3], in [4], in assay [5] and in assay [6] was above 100 µM in each case. The TGI in assay [8], in assay [9] and in [10] was above 100 µM throughout.

In the case of `COc1cccc(N=NN2CCCC2)c1`, the TGI in assay [1], in [2], in [3], in assay [4], in [5] and in assay [6] was above 100 µM each time. Further, the TGI in assay [7], in assay [9] and in assay [10] was above 100 µM each time.

Consider `C[n+]1c2ccccc2c(C(=O)Nc2ccc(S(=O)(=O)Nc3ncccn3)cc2)c2ccccc21`, for which the TGI in assay [1], in [2], in assay [4], in [5], in [6] and in assay [7] was above 100 µM throughout. In addition, the TGI in assay [8], in assay [9] and in assay [10] was above 100 µM each time.

For `O=CC1=CCC2c3[nH]c4ccccc4c3CCN2C1` (stereo not drawn), the TGI in [2] was 320 µM; in [3], above 396 µM; in assay [4], 153 µM; in assay [5], 126 µM; in assay [6], above 39.6 µM; in assay [8], above 396 µM. In addition, the TGI in assay [9] was above 396 µM.

On to `CC(C)(CN1CCCCC1)C(=O)CC(SCCS(=O)(=O)O)c1ccc(Cl)cc1` (stereo not drawn), for which the TGI stood at 15.1 µM in [1]; 16.6 µM in assay [2]; 6.04 µM in assay [3]; 19.2 µM in assay [4]; 13.6 µM in assay [5]; 25 µM in assay [6]. In addition, the TGI in [8] worked out at 24.3 µM; in assay [9] it was 18.9 µM; in assay [10], 10.6 µM.

As to `Clc1ccc(C2=NCON=C2c2ccc(Cl)cc2)cc1`, the TGI was 40.7 µM in [1]; 44.3 µM in assay [2]; 53.1 µM in assay [3]; 39.6 µM in assay [4]; 31.3 µM in assay [5]; above 100 µM in assay [6]. The figures for the TGI in assay [7], in [8] and in assay [9] were above 100 µM, 27.7 µM and 66.3 µM, respectively.

In the case of `CCOC(=O)C1CCC(=O)N1C(=O)c1ccc(Cl)cc1` (stereo not drawn), the TGI in [1], in [2], in assay [3], in assay [4], in assay [5] and in [6] was above 100 µM in each case. Besides, the TGI in [8] and in [10] was above 100 µM each time.

As to `COc1ccc2c(c1)CC[C@@H]1C2CC[C@]2(C)C(=C=CP(=O)(O)O)CCC12` (stereo partly drawn), the TGI in assay [2], in assay [4], in [5], in assay [6], in assay [7] and in assay [8] was above 100 µM throughout. The TGI in assay [9] and in assay [10] was above 100 µM throughout.

As to `COc1ccc(C23OCC(Cc4cc(OC)c(OC)cc42)C3CO)cc1OC` (stereo not drawn), the TGI in [1], in assay [2], in [4], in assay [5], in assay [6] and in assay [7] was above 100 µM each time. Besides, the TGI in assay [8], in [9] and in assay [10] was above 100 µM in each case.

As for `O=c1[nH]c2ccc([N+](=O)[O-])cc2nc1/C(=N/Nc1ccccc1)C(O)c1ccco1` (stereo not drawn), the TGI in assay [1], in [2], in [3], in [4], in assay [5] and in assay [6] was above 100 µM throughout. The TGI in assay [7], in assay [8] and in assay [9] was above 100 µM in each case.

Consider `CN(C)C(=O)Oc1ccc(C(=S)Nc2ccccc2)cc1`, for which the TGI in assay [1] was above 100 µM; in [2], above 100 µM; in [3], 79.6 µM; in [4] it was above 100 µM; in [5] it was above 100 µM; in [6], above 100 µM. In addition, the TGI in assay [7], in assay [8] and in [10] was above 100 µM each time.

On to `O=C(O)/C=C/c1ccncc1`, for which the TGI was above 100 µM in assay [1]; above 100 µM in assay [2]; above 100 µM in [3]; above 100 µM in [4]; above 100 µM in [5]; 0.746 µM in assay [6]. Further, the TGI in [7], in [8] and in assay [9] was above 100 µM in each case.

As to `O=C(c1ccccc1)c1cc(Cl)ccc1NCn1nnc2ccccc21`, the TGI in [1], in assay [2], in [3], in assay [4], in assay [6] and in [7] was above 100 µM in each case. The TGI in [9] was above 100 µM.

Regarding `O=S(=O)(O)c1cc(O)c(N=Nc2ccc3ccccc3c2O)c2ccccc12`, the TGI in [1] is 65 µM; in assay [2] it was 30.8 µM; in [3] it was above 100 µM; in [4] it was above 100 µM; in assay [5], above 100 µM; in [6] it was above 100 µM. The TGI is above 100 µM in assay [7], 9.66 µM in assay [8] and above 100 µM in assay [9].

Regarding `CCOC(=O)c1c(-c2ccccc2)c(C)cn1C`, the TGI in [1], in assay [2], in assay [3], in [4], in [5] and in assay [7] was above 10 µM in each case. In addition, the TGI in assay [9] and in assay [10] was above 10 µM throughout.

Regarding `CC[C@]1(Cc2ccc(OC)c(OC)c2)C=[N+]([O-])O[C@H](OC2CCCC2(c2ccccc2)c2ccccc2)[C@@H]1OC(=O)C(C)(C)C` (stereo partly drawn), the TGI in assay [1] was 3.97 µM; in assay [2] it was 14.8 µM; in assay [3], above 40.3 µM; in assay [4] it was 5.84 µM; in assay [5], 4.58 µM; in assay [6], 6.93 µM. In addition, the TGI is 14.1 µM in assay [7], above 25.4 µM in assay [9] and 4.12 µM in assay [10].

`Clc1cc2ncn(C3CCCCO3)c2cc1Cl` (stereo not drawn): the TGI was 49.8 µM in assay [1]; above 100 µM in assay [2]; above 100 µM in assay [3]; above 100 µM in assay [4]; above 100 µM in [5]; above 100 µM in [6]. Besides, the TGI in assay [7], in assay [8] and in assay [10] was above 100 µM each time.

For `Cc1ncc(CSC(=N)N)n1Cc1ccccc1`, the TGI in assay [1], in assay [2], in [4], in assay [5], in assay [6] and in assay [7] was above 100 µM throughout. Further, the TGI in [8], in [9] and in [10] was above 100 µM throughout.

Take `C(=C\c1c2oc(-c3ccccc3)cc(-c3ccccc3)c-2c2ccccc12)/C=C1\c2ccccc2-c2c(-c3ccccc3)cc(-c3ccccc3)[o+]c21`: the TGI in assay [1], in assay [2], in assay [3], in assay [5], in [6] and in assay [7] was above 100 µM in each case. Also, the TGI in assay [8] and in assay [9] was above 100 µM throughout.

Values taken from PubChem BioAssay (NCI).
